Test results: patent publication US20230098646A1, “NEUROMODULATION DEVICES AND RELATED METHODS” (Massachusetts Institute of Technology, priority 2021, published 2023)
Where a SMILES comes first, the peptide text is derived from it. The star is where a group is joined. Cbz = O=C(OCc1ccccc1)*

Assays:
[1] = system: C2C12 cells; experiment: Extract exposure test (ISO), cell viability by ATP quantitation (CellTiter-Glo); type: cell-based; conditions: 40 um MG-132, positive control, vs negative control (p<0.05)
Description: An extract exposure test following ISO norms was performed to evaluate the toxicity of the neuroprosthesis material. 0.2 gm of material were added to 1 mL of DMEM culture medium and stirred at 37° C. for 24 hours or 7 days to create the extract samples. 100 uL of fetal bovine serum were added to 900 uL aliquots of the samples and used to treat C2C12 cells plated in a 96 well plate in triplicate. A negative control of untreated media and positive control of media containing 40 um MG-132, a small molecule proteasome inhibitor, were also performed. At 24 and 72 hours, cell viability was measured through quantitation of ATP using CellTiter-Glo (Promega) using a Tecan M1000Pro.

[2] = system: lower esophageal sphincter; experiment: Glucagon infusion through the neuroprosthesis microfluidic channel into the lower esophageal sphincter, intraluminal manometry; type: in vivo, swine
Description: The neuroprosthesis' distal tip was implanted in the lower esophageal sphincter and glucagon was infused through the microfluidic channel. This chemical stimulation yielded relaxation of the sphincter within 10-20 s. […] Muscle tone returned within 1.5 minutes whereupon repeated infusions led to relaxation. Injection of saline produced no measurable effect and served as negative a control.
Following validation of the safety, efficacy, and biocompatibility, the prosthesis was implanted Yorkshire swine (n=2, 94 kg & 70 kg). The optimized electrical stimulation parameters were programmed into the controller. A pump primed the microfluidic channel and injected 5mg/mL glucagon per neurochemical stimulus.
To characterize and validate the neuroprosthesis' ability to sense and create artificial peristalsis, a fluoroscopic pellet study was conducted. Barium sulfate (Bracco E-Z-HD Barium Sulfate for Suspension (98% w/w), Patterson Veterinary) was mixed with a sodium alginate solution (Sigma) in a 50:50 volume by weight ratio. After 10 minutes of sonication at 30 deg C., the suspension was pipetted into a custom silicone mold sized for a triple zero capsule. After 24 hours, these pellets were hydrated with a 2M CaCl2 solution for at least 2 hours and rinsed with PBS for 72 hours. They were then placed in the esophagus using the endoscope. Stimulation and sensing were performed by the neuroprosthesis and the pellet was radiographically visualized using fluoroscopy. Further, intraluminal manometry studies were performed (n=4, swine) to characterize changes in esophageal reflexes and pressures following tool-based tissue manipulation and neuroprosthesis implantation as well as capture artificial peristalsis created by the neuroprosthesis. An intraluminal manometer (Endoflip, Medtronic) was inserted into the middle and lower esophagus using an overtube to profile distensibility, pressure, pattern of motility and minimal diameter of the esophagus. […] Electromyography was recorded from the electrodes during stimulation and rest periods. […]

Compound: CC(C)C[C@@H](C=O)NC(=O)[C@H](CC(C)C)NC(=O)[C@H](CC(C)C)NC(=O)OCc1ccccc1 [MG-132] (Cbz-Leu-Leu-Leu-aldehyde)
- cell viability [1]: significantly decreased cell viability

Compound: glucagon
- time to relaxation of the sphincter ([2]; after glucagon infusion through microfluidic channel, distal tip in lower esophageal sphincter): 10 to 20 s
- time until muscle tone returned ([2]; after glucagon infusion, repeated infusions again led to relaxation): ≤ 1.5 min
- relaxation of the LES on glucagon infusion ([2]; microfluidic infusion by the neuroprosthesis, 5mg/mL glucagon per stimulus, tonic LES at rest): yielded relaxation of this LES
